One assay concerns anti-KLH IgG. The assay can be described thus: ELISA for anti-KLH IgG titer in serum of KLH-immunized rats (rat KLH-TDAR model). The format is in vivo, F344 rats. As to conditions: for Anti-KLH IgG titer: twice weekly for 4 weeks, serum, mean ± SE (n = 10). The method, then:
(§1) F344 rats (male, 7 weeks old) were immunized with KLH plus adjuvant twice at day 0 and day 14. From 8 days after last immunization, rats were administered with vehicle or compound (I) (0.3 mpk, i.v. or 1.5 mpk, p.o.) twice weekly for 4 weeks, then the rats were sacrificed and serum, spleen and bone marrow were collected. All study protocols were approved by TAKEDA Animal Care and Use Committee.
Serum was stored at −80° C. until use. Anti-KLH IgG titer in serum was measured by ELISA (KLH rat IgG ELISA kit, Shibayagi).
(§2) Data represent mean values+s.e.m. (n=10). Student t test was used for statistical analysis (*p<0.05, **p<0.01 vs. control).
For orientation: In an ELISA, binding on a coated surface is turned into a signal by an enzyme label.

Assay [1] concerns anti-KLH antibody producing cells. Briefly: ELISpot assay of anti-KLH IgG-secreting cells from spleen and bone marrow of KLH-immunized rats. As to conditions: for The number of anti-KLH IgG-secreting cells, bone marrow / The number of anti-KLH IgG-secreting cells, Spleen: twice weekly for 4 weeks, mean ± SE (n = 10). In kind it is in vivo, F344 rats. The method, then: as §1
Splenocytes and bone marrow cells were collected from spleen and bone marrow. The cells were cultured for 2 hours on 96 well plate pre-coated with KLH (Sigma, H7017-20 MG), then after washing with PBS, the plates were incubated with goat anti-rat IgG, HRP conjugate (Millipore, AP136P) for 1 hour. Anti-KLH antibody producing cells were visualized by adding TMB substrate and the number of anti-KLH antibody producing cells were counted by ELISpot reader system (AID).
as §2

SMILES strings stand for the structures. Marks after values point to notes of the source that are not given here.

For `CC(C)C[C@H](NC(=O)CNC(=O)c1cc(Cl)ccc1Cl)B(O)O` [Compound (I), [(1R)-1-({[(2,5-dichlorobenzoyl)amino]acetyl}amino)-3-methylbutyl]boronic acid], the “Anti-KLH IgG titer” value is 509.5 ± 54.4* in the assay on anti-KLH IgG (0.3 mpk, iv) and 545.8 ± 67.0* with anti-KLH IgG (1.5 mpk, po). Moreover, the “effect on anti-KLH IgG titer (in words)” value in the assay with anti-KLH IgG (four weeks treatment, 0.3 mpk, i.v. or 1.5 mpk, p.o.) was “significantly suppressed the anti-KLH IgG titer”. Further, the “The number of anti-KLH IgG-secreting cells, bone marrow” value in assay [1] (0.3 mpk, iv) is on record as 103.9 ± 16.9** /3 × 10^5cells; in assay [1] (1.5 mpk, po), 156.4 ± 32.0 /3 × 10^5cells. Further, the “The number of anti-KLH IgG-secreting cells, Spleen” value in assay [1] (0.3 mpk, iv) is recorded as 37.0 ± 6.8** /1 × 10^6cells; in assay [1] (1.5 mpk, po), 50.1 ± 12.2* /1 × 10^6cells. In addition, the “effect on the number of anti-KLH IgG-producing cells in spleen and bone marrow (in words)” value in assay [1] (four weeks treatment, 0.3 mpk, i.v. or 1.5 mpk, p.o., ELISpot) is “suppressed the number of anti-KLH IgG-producing cells in spleen and bone marrow”.

For the origin of these results see patent publication US20160250238A1, “Method for the Prophylaxis or Treatment of Systemic Lupus Erythematosus and/or Lupus Nephritis” (MILLENNIUM PHARMACEUTICALS, INC., priority 2013, published 2016).
